These are literature values, as cited in PMC3689924 (Pharmacology, 2012).

For the data set the following is noted: cited from earlier work.

Each structure is given as a SMILES string.

Turning to `COC(=O)c1cnc2n1CCc1ccccc1C2=C1CCN(CCc2ccc(OCc3ccc4ccccc4n3)cc2)CC1` [laniquidar], the “increase in AUC with increasing dose” value is “greater than proportional increases in AUC”.

Regarding `O[C@@H](COc1cccc2ncccc12)CN1CCN([C@@H]2c3ccccc3[C@@H]3[C@H](c4ccccc42)C3(F)F)CC1` [zosuquidar], the “increase in AUC with increasing dose” value was “greater than proportional increases in AUC”.
